Experimental data from patent EP4692094A1 (Beijing Konruns Pharmaceutical Co., Ltd., priority 2023, dated 2024).

Assays:
CYP2C8 = molecular target: T1, CYP2C8 (Homo sapiens, UniProt P10632); assay: Inhibitory effect on P450 enzymes in vitro (human liver microsomes), CYP2C8; assay type: in vitro ADME; conditions: probe paclitaxel, final concentration 10 µM, substrate paclitaxel, read-out: % inhibition rate CYP2C8 (paclitaxel)
T1 construct: from tissue; host or cells: human liver microsomes
T1 sequence (P10632 1-490): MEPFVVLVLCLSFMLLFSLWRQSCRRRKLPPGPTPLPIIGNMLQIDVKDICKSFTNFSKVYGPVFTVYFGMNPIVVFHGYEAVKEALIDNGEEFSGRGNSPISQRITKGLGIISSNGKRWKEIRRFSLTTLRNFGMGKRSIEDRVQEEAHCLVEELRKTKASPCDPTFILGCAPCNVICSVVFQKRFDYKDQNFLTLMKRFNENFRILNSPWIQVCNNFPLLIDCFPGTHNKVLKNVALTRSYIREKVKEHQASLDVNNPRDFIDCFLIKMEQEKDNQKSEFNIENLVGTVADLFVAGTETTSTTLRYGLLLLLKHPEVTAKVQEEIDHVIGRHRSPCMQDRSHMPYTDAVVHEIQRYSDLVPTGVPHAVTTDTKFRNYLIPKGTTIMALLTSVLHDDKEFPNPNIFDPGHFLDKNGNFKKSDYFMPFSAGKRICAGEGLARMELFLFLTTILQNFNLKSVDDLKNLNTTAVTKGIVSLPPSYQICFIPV
Procedure: 1.1 Preparation of compounds: The compounds prepared in the examples were each dissolved in dimethylsulfoxide to give solutions at a concentration of 2 mmol/L.
1.2 Test methods: • 1) Incubation system: human liver microsomes, a MgCl2 solution, a phosphate buffer solution, and a substrate solution were each added a 96-well deep-well plate and mixed homogenously. In the final incubation system, the concentration of the human liver microsomes was 0.2 mg/mL, and the final concentrations of the MgCl2 solution and the phosphate buffer solution were 5 mM and 100 mM, respectively. • 2) 1 µL of the substrate solution was added to the incubation system, and the final concentrations of CYP1A2 phenacetin, 2C8 paclitaxel […], 2C19 mephenytoin, 2D6 midazolam, and 3A midazolam substrates were 40 µM (phenacetin), 5 µM (paclitaxel), 50 µM (mephenytoin), 10 µM (mephenytoin), 5 µM (midazolam), and 50 µM […], respectively. • 3) 1 µL of the example compound or vehicle (DMSO) was added to the incubation system, and the incubation system was pre-warmed for 5 min in a 37 °C water bath before starting the reaction with 20 µL of 10 mM NADPH solution.
1.3 Sample treatment: Within the designated time (20 min for phenacetin, 10 min for paclitaxel, 20 min for mephenytoin, 20 min for dextromethorphan, 5 min for midazolam, and 10 min for testosterone), 400 µL of methanol containing the internal standard was added to terminate the reaction, and the mixture was vortexed and mixed homogeneously. Then, the deep-well plate was centrifuged at 3220 g and 4 °C for 40 min. 100 µL of the supernatant was transferred into a new plate, and 150 µL of purified water was added. The mixture was mixed homogenously for LC-MS/MS analysis. Table 11. Inhibitory effects of some compounds in the examples on CYP enzymes

[1] = Assay for plasma protein binding rate (equilibrium dialysis), rat plasma; assay type: in vitro ADME; conditions: dialysis 6 h at 37 °C, read-out: Rat (Fu%)
Procedure: 1.1 Preparation of compounds: The compounds prepared in the examples were each dissolved in dimethylsulfoxide to give solutions at a concentration of 10 mmol/L. • 1) The example compounds were each diluted from 10 mmol/L stock solution to 0.2 mmol/L, i.e., 1 µL of the compound was added to 49 µL of DMSO; • 2) 3 µL of 0.2 mmol/L test compounds were added to 597 µL of blood plasma, and the mixtures were vortexed at 1000 rpm for 2 min; • 3) 50 µL of the plasma containing the drug in 2) was taken, 50 µL of PBS was added, and 300 µL of methanol internal standard* was added to serve as a sample T0; • 4) 120 µL of the plasma containing the drug in 2) was taken and added to one side of an HTD device membrane, and 120 µL of PBS was added to the other side of the membrane; a breathable film was covered, and the plasma and the residual sample in 2) were balanced at 37 °C (100 rpm and 5% CO2) for 6 h; • 5) 50 µL of the dialyzed plasma side sample was taken, 50 µL of PBS was added, and 300 µL of methanol internal standard* was added to serve as a sample P; • 6) 50 µL of the dialyzed PBS side sample was taken, 50 µL of blank plasma was added, and 300 µL of methanol internal standard* was added to serve as a sample B; • 7) 50 µL of the plasma containing the drug in 2) was taken, 50 µL of PBS was added, and 300 µL of methanol internal standard* was added to serve as a sample T6; • 8) All samples were vortexed, mixed homogeneously, and then centrifuged at 3220 g for 40 min at 4 °C; • 9) 100 µL of the supernatant and 100 µL of purified water were mixed homogenously for liquid chromatography-mass spectrometry.
An internal standard method was used, and the plasma protein binding rate, recovery rate, and residual percentage were calculated by using Excel according to the ratio of the peak area of the sample to the peak area of the internal standard. Free rate(%) = (RatioB)/(RatioP) × 100% [formula] Binding rate(%) = 100%−Free rate% [formula] Recovery rate(%) = (RatioB + RatioP)/(RatioT0) × 100% [formula] Remaining percentage(%) = (RatioT6)/(RatioT0) × 100% [formula]
RatioB: a ratio of the peak area of the test substance on the PBS side to the peak area of the internal standard; RatioP: a ratio of the peak area of the test substance on the plasma side to the peak area of the internal standard; RatioT6: a ratio of the peak area of the sample after incubation with the test substance for 6 h to the peak area of the internal standard; RatioT0: a ratio of the peak area of the sample after incubation with the test substance for 0 h to the peak area of the internal standard. Table 8. Plasma protein binding rate (Fu%) data for various species of example compounds

Compound: COc1cc2c(cc1S(=O)(=O)Nc1noc3cc(Cn4cccn4)nc(OC)c13)CCCC2 [Example 2, N-(6-((1H-Pyrazol-1-yl)methyl)-4-methoxyisoxazolo[4,5-c]pyridin-3-yl)-3-methoxy-5,6,7,8-tetrahydronaphthalene-2-sulfonamide]
- inhibition at 10 min, 10 µM (CYP2C8): 16.4%
- fraction unbound at 6 h, 1 µM [1]: 0.0167

Compound: COc1ccc2c(c1S(=O)(=O)Nc1noc3cc(Cn4cccn4)nc(OC)c13)OCC2 [Example 9, N-(6-((1H-Pyrazol-1-yl)methyl)-4-methoxyisoxazolo[4,5-c]pyridin-3-yl)-6-methoxy-2,3-dihydrobenzofuran-7-sulfonamide]
- fraction unbound at 6 h, 1 µM [1]: 0.0257

Compound: COc1ccc2ccoc2c1S(=O)(=O)Nc1noc2cc(Cn3cccn3)nc(OC)c12 [Example 10, N-(6-((1H-Pyrazol-1-yl)methyl)-4-methoxyisoxazolo[4,5-c]pyridin-3-yl)-6-methoxybenzofuran-7-sulfonamide]
- inhibition at 10 min, 10 µM (CYP2C8): 3.71%
- fraction unbound at 6 h, 1 µM [1]: 0.0132

Compound: COc1cc2c(cc1S(=O)(=O)Nc1noc3cc(Cn4cccn4)nc(OC)c13)OCC2 [Example 59, N-(6-((1H-Pyrazol-1-yl)methyl)-4-methoxyisoxazolo[4,5-c]pyridin-3-yl)-5-methoxy-2,3-dihydrobenzofuran-6-sulfonamide]
- inhibition at 10 min, 10 µM (CYP2C8): 2.08%
- fraction unbound at 6 h, 1 µM [1]: 0.0414

Compound: COc1cc2c(cc1S(=O)(=O)Nc1noc3cc(Cn4cccn4)nc(OC)c13)CCCO2 [Example 76, N-(6-((1H-Pyrazol-1-yl)methyl)-4-methoxyisoxazolo[4,5-c]pyridin-3-yl)-7-methoxy-3,4-dihydro-1H-benzopyran-6-sulfonamide]
- fraction unbound at 6 h, 1 µM [1]: 0.0144
